From BindingDB's records for doi:10.1021/jm970166j (Roche Bioscience, 1997)

Key:
[1] = molecular target: T1, 5-hydroxytryptamine receptor 1A (Mus musculus, UniProt Q64264); assay: The compound's binding affinity against 5-hydroxytryptamine 1A receptor
T1 sequence (Q64264 whole entry): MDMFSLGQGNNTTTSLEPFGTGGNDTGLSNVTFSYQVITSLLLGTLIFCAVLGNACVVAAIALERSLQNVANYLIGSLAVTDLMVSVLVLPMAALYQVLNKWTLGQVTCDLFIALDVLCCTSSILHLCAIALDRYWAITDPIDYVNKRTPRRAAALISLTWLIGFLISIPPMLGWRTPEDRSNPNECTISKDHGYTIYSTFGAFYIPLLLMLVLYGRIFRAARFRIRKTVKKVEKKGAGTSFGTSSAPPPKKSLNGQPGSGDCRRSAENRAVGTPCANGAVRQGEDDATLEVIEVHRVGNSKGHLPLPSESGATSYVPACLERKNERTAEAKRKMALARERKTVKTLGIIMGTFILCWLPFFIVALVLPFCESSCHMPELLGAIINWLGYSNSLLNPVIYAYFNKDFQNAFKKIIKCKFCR

D(2) dopamine receptor = D(2) dopamine receptor (Homo sapiens, UniProt P14416); assay: The compound's binding affinity against Dopamine receptor D2
[2] = molecular target: T2, Alpha-2B adrenergic receptor (Rattus norvegicus, UniProt P19328); assay: The compound's binding affinity against Alpha-2B adrenergic receptor from rat kidney homogenate in the presence of phentolamine
T2 sequence (P19328 whole entry): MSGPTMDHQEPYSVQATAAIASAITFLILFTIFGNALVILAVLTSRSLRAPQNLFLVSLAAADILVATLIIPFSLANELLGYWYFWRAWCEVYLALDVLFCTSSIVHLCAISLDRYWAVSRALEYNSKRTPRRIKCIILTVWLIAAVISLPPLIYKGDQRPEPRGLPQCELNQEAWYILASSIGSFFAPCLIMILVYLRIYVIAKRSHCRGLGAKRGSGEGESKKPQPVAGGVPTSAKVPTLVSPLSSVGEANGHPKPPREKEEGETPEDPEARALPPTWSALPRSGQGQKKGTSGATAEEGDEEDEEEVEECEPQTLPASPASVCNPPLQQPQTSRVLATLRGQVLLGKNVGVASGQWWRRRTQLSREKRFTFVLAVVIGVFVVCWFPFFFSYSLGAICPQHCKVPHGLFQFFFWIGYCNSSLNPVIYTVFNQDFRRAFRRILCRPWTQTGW

D(2) dopamine receptor, sequence (P14416 whole entry): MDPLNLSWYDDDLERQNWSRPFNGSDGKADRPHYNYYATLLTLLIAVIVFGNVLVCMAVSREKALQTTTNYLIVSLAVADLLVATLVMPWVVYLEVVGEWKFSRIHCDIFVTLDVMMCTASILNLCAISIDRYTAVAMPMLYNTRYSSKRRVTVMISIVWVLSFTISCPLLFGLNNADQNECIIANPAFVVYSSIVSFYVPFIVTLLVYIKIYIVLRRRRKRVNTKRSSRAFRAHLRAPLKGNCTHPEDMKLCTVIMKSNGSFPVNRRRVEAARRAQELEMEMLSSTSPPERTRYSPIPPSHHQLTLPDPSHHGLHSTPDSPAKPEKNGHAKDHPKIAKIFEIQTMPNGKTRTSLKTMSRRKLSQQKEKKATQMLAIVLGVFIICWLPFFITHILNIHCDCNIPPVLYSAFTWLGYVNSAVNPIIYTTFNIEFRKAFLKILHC

Row | pKi [1] | pKi (D(2) dopamine receptor) | pKi [2] | Compound
1 | 6.5 | 6.4 | – | COc1cc(F)ccc1N1CCN(CCCNc2c(C(=O)N(C)C)cnc3c2c(C)nn3C)CC1
2 | 7.5 | 8.1 | 8.6 | Cc1nn(C)c2ncc(C(=O)N(C)C)c(NCCCN3CCN(c4ccccc4OCC(F)(F)F)CC3)c12
3 | 6.7 | 6.7 | 6.5 | COc1cc(F)ccc1N1CCN(CCCNc2ncccc2C(=O)N(C)C)CC1
4 | 7.6 | 7.4 | – | COc1ccccc1N1CCN(CCCNc2ncccc2C(=O)N(C)C)CC1
